Assay results from US20230092001A1, “FURANEOL GLYCOSIDE COMPOUND, PHARMACEUTICAL COMPOSITION THEREOF, PREPARATION METHOD THEREFOR, AND APPLICATION THEREOF” (priority 2019, published 2023).

Tests used:
[1] = tested on: ulcerative colitis model (dextran sodium sulphate); assay: Effect example 2: therapeutic effect on ulcerative colitis, dextran sodium sulphate model, oral gavage, 14 days; format: in vivo, C57 mice; details: for Weight effect compared with the positive control drug SASP (in words): 40 mg/kg oral gavage vs SASP 30 mg/kg oral gavage; for Effect on the reduction of weight in mice (in words): 40 mg/kg oral gavage, vs ulcerative colitis model group; for Average colon length of mice: day 14
Protocol: Thirty-five 10-week-old male C57 mice, SPF class animal house, temperature 20-26° C., humidity 40%-70%, alternating light-dark periods (12 h/12 h).
(§1) Quarantine-qualified animals with similar weights were selected for the experiment.
Mice in the blank control group were given normal drinking water throughout the experiment. The other 6 groups of mice were given drinking water containing 2% dextran sodium sulphate from day 1 to day 5, normal drinking water from day 6 to day 7, drinking water containing 2% dextran sodium sulphate from day 8 to day 12, and normal drinking water from day 13 to day 14. The experiment ended on day 14. All groups were administered by oral gavage once a day according to table 7, until the end of the experiment on day 14.
(§2) (1) The mice were weighed daily.
(2) Blood samples were collected from the orbital vein on day 14 and stored at −80° C.
(3) On day 14, the mice were sacrificed by cervical vertebra dislocation, the colon was removed and a small amount of fecal was taken from the colon and left as a sample. The colon length and colon weight were measured. A portion of the colon and the fecal sample was stored at −80° C.

[2] = tested on: ulcerative colitis model (dextran sodium sulphate); assay: Effect Example 3: therapeutic effect on ulcerative colitis, dextran sodium sulphate model, oral gavage, 7 days; format: in vivo, C57 mice; details: 40 mg/kg oral gavage; for Average colon length of mice: day 7
Protocol: Fifty 10-week-old male C57 mice, SPF class animal house, temperature 20-26° C., humidity 40%-70%, alternating light-dark periods (12 h/12 h).
as §1
Mice in the blank control group were given normal drinking water throughout the experiment. The other 9 groups of mice were given drinking water containing 2% dextran sodium sulphate from day 1 to day 7. All groups were administered by oral gavage once a day according to table 10, until the end of the experiment.
as §2
(2) Blood samples were collected from the orbital vein on day 7 and stored at −80° C.
(3) On day 7, the mice were sacrificed by cervical vertebra dislocation, the colon was removed and a small amount of fecal was taken from the colon and left as a sample. The colon length and colon weight were measured. A portion of the colon and the fecal sample was stored at −80° C.

[3] = Day 1, treatment group 40 mg/kg oral gavage
[4] = Day 2, treatment group 40 mg/kg oral gavage
[5] = Day 3, treatment group 40 mg/kg oral gavage
[6] = Day 4, treatment group 40 mg/kg oral gavage
[7] = Day 5, treatment group 40 mg/kg oral gavage
[8] = Day 6, treatment group 40 mg/kg oral gavage
[9] = Day 7, treatment group 40 mg/kg oral gavage
[10] = Day 8, treatment group 40 mg/kg oral gavage
[11] = Day 9, treatment group 40 mg/kg oral gavage
[12] = Day 10, treatment group 40 mg/kg oral gavage
[13] = Day 11, treatment group 40 mg/kg oral gavage
[14] = Day 12, treatment group 40 mg/kg oral gavage
[15] = Day 13, treatment group 40 mg/kg oral gavage
[16] = Day 14, treatment group 40 mg/kg oral gavage
[17] = treatment group 40 mg/kg oral gavage

SMILES: CC(=O)OC[C@H]1O[C@@H](OC2=C(C)OC(=C(C)C)C2=O)[C@H](OC(C)=O)[C@@H](OC(C)=O)[C@H]1OC(C)=O [Compound I-4, 4-O-[(2,3,4,6-tetra-O-acetyl)-β-D-galactosyl]-5-methyl-2-(1-methylethylidene)-3(2H)-furanone]
- Weight effect compared with the positive control drug SASP (in words) [1]: better than the positive control drug
- Effect on the reduction of weight in mice (in words) [1]: significant improvement in the reduction of weight in mice
- Average weight of mice [1, 3]: 26.72 g
- Average weight of mice [1, 4]: 26.76 g
- Average weight of mice [1, 5]: 26.72 g
- Average weight of mice [1, 6]: 26.72 g
- Average weight of mice [1, 7]: 26.44 g
- Average weight of mice [1, 8]: 26.36 g
- Average weight of mice [1, 9]: 24.82 g
- Average weight of mice [1, 10]: 23.44 g
- Average weight of mice [1, 11]: 23.3 g
- Average weight of mice [1, 12]: 23.3 g
- Average weight of mice [1, 13]: 24.02 g
- Average weight of mice [1, 14]: 24.14 g
- Average weight of mice [1, 15]: 24.5 g
- Average weight of mice [1, 16]: 24.68 g
- Average colon length of mice [1, 17]: 6.2 cm

SMILES: COC(=O)[C@H]1O[C@@H](OC2=C(C)OC(=C(C)C)C2=O)[C@H](OC(C)=O)[C@@H](OC(C)=O)[C@@H]1OC(C)=O [Compound I-5]
- Weight effect compared with the positive control drug SASP (in words) [1]: better than the positive control drug
- Effect on the reduction of weight in mice (in words) [1]: significant improvement in the reduction of weight in mice
- Average weight of mice [1, 3]: 26.9 g
- Average weight of mice [1, 4]: 26.92 g
- Average weight of mice [1, 5]: 26.88 g
- Average weight of mice [1, 6]: 26.9 g
- Average weight of mice [1, 7]: 26.58 g
- Average weight of mice [1, 8]: 26.32 g
- Average weight of mice [1, 9]: 25.3 g
- Average weight of mice [1, 10]: 23.6 g
- Average weight of mice [1, 11]: 23.24 g
- Average weight of mice [1, 12]: 23.24 g
- Average weight of mice [1, 13]: 24.2 g
- Average weight of mice [1, 14]: 24.48 g
- Average weight of mice [1, 15]: 24.5 g
- Average weight of mice [1, 16]: 24.68 g
- Average colon length of mice [1, 17]: 6.0 cm

SMILES: CC(C)=C1OC(C)=C(O[C@@H]2O[C@H](COC(=O)C(C)(C)C)[C@@H](OC(=O)C(C)(C)C)[C@H](OC(=O)C(C)(C)C)[C@H]2OC(=O)C(C)(C)C)C1=O [Compound I-6]
- Weight effect compared with the positive control drug SASP (in words) [1]: better than the positive control drug
- Effect on the reduction of weight in mice (in words) [1]: significant improvement in the reduction of weight in mice
- Average weight of mice [1, 3]: 26.9 g
- Average weight of mice [1, 4]: 26.94 g
- Average weight of mice [1, 5]: 26.9 g
- Average weight of mice [1, 6]: 26.9 g
- Average weight of mice [1, 7]: 26.64 g
- Average weight of mice [1, 8]: 26.2 g
- Average weight of mice [1, 9]: 24.52 g
- Average weight of mice [1, 10]: 24.38 g
- Average weight of mice [1, 11]: 24.42 g
- Average weight of mice [1, 12]: 24.42 g
- Average weight of mice [1, 13]: 24.66 g
- Average weight of mice [1, 14]: 24.94 g
- Average weight of mice [1, 15]: 24.72 g
- Average weight of mice [1, 16]: 24.5 g
- Average colon length of mice [1, 17]: 5.9 cm

SMILES: CCOC(=O)OC[C@H]1O[C@@H](OC2=C(C)OC(=C(C)C)C2=O)[C@H](O)[C@@H](O)[C@@H]1O [Compound I-7]
- Average weight of mice ([2]; Day 1): 21.47 g
- Average weight of mice ([2]; Day 2): 21.62 g
- Average weight of mice ([2]; Day 3): 21.18 g
- Average weight of mice ([2]; Day 4): 20.82 g
- Average weight of mice ([2]; Day 5): 20.13 g
- Average weight of mice ([2]; Day 6): 20.07 g
- Average weight of mice ([2]; Day 7): 19.88 g
- Average colon length of mice [2]: 5.4 cm

SMILES: CC(=O)OC[C@H]1O[C@@H](OC2=C(C)OC(=C3CCCC3)C2=O)[C@H](OC(C)=O)[C@@H](OC(C)=O)[C@@H]1OC(C)=O [Compound I-8]
- Effect on the colon length (in words) [2]: can gradually restore the colon length
- Average weight of mice ([2]; Day 1): 21.85 g
- Average weight of mice ([2]; Day 2): 21.97 g
- Average weight of mice ([2]; Day 3): 21.77 g
- Average weight of mice ([2]; Day 4): 21.33 g
- Average weight of mice ([2]; Day 5): 20.62 g
- Average weight of mice ([2]; Day 6): 20.52 g
- Average weight of mice ([2]; Day 7): 20.32 g
- Average colon length of mice [2]: 6.1 cm

SMILES: CC(=O)OC[C@H]1O[C@@H](OC2=C(C)OC(=C3CCCCC3)C2=O)[C@H](OC(C)=O)[C@@H](OC(C)=O)[C@@H]1OC(C)=O [Compound I-9]
- Effect on the colon length (in words) [2]: can gradually restore the colon length
- Average weight of mice ([2]; Day 1): 21.20 g
- Average weight of mice ([2]; Day 2): 21.17 g
- Average weight of mice ([2]; Day 3): 20.92 g
- Average weight of mice ([2]; Day 4): 20.47 g
- Average weight of mice ([2]; Day 5): 20.03 g
- Average weight of mice ([2]; Day 6): 19.42 g
- Average weight of mice ([2]; Day 7): 19.38 g
- Average colon length of mice [2]: 6.3 cm

SMILES: CC(=O)OC[C@H]1O[C@@H](OC2=C(C)OC(=C3CCOCC3)C2=O)[C@H](OC(C)=O)[C@@H](OC(C)=O)[C@@H]1OC(C)=O [Compound I-10]
- Average weight of mice ([2]; Day 1): 21.95 g
- Average weight of mice ([2]; Day 2): 21.60 g
- Average weight of mice ([2]; Day 3): 21.18 g
- Average weight of mice ([2]; Day 4): 21.27 g
- Average weight of mice ([2]; Day 5): 20.90 g
- Average weight of mice ([2]; Day 6): 20.13 g
- Average weight of mice ([2]; Day 7): 19.25 g
- Average colon length of mice [2]: 5.8 cm

SMILES: CC(=O)OC[C@H]1O[C@@H](OC2=C(C)OC(=C3CCNCC3)C2=O)[C@H](OC(C)=O)[C@@H](OC(C)=O)[C@@H]1OC(C)=O [Compound I-11]
- Effect on the colon length (in words) [2]: can gradually restore the colon length
- Average weight of mice ([2]; Day 1): 21.62 g
- Average weight of mice ([2]; Day 2): 21.30 g
- Average weight of mice ([2]; Day 3): 21.10 g
- Average weight of mice ([2]; Day 4): 20.97 g
- Average weight of mice ([2]; Day 5): 20.32 g
- Average weight of mice ([2]; Day 6): 19.93 g
- Average weight of mice ([2]; Day 7): 19.30 g
- Average colon length of mice [2]: 6.2 cm

SMILES: CC(=O)OC[C@H]1O[C@@H](OC2=C(C)OC(=C3CCN(C(C)=O)CC3)C2=O)[C@H](OC(C)=O)[C@@H](OC(C)=O)[C@@H]1OC(C)=O [Compound I-12]
- Average weight of mice ([2]; Day 1): 21.25 g
- Average weight of mice ([2]; Day 2): 21.22 g
- Average weight of mice ([2]; Day 3): 21.13 g
- Average weight of mice ([2]; Day 4): 20.62 g
- Average weight of mice ([2]; Day 5): 20.10 g
- Average weight of mice ([2]; Day 6): 16.32 g
- Average weight of mice ([2]; Day 7): 18.88 g
- Average colon length of mice [2]: 5.7 cm

SMILES: O=C(O)c1cc(/N=N/c2ccc(S(=O)(=O)Nc3ccccn3)cc2)ccc1O [SASP, salazosulfapyridine, reference compound]
- Average weight of mice ([1]; Day 1, positive control group 30 mg/kg oral gavage): 26.8 g
- Average weight of mice ([1]; Day 2, positive control group 30 mg/kg oral gavage): 26.86 g
- Average weight of mice ([1]; Day 3, positive control group 30 mg/kg oral gavage): 26.82 g
- Average weight of mice ([1]; Day 4, positive control group 30 mg/kg oral gavage): 26.8 g
- Average weight of mice ([1]; Day 5, positive control group 30 mg/kg oral gavage): 26.52 g
- Average weight of mice ([1]; Day 6, positive control group 30 mg/kg oral gavage): 25.74 g
- Average weight of mice ([1]; Day 7, positive control group 30 mg/kg oral gavage): 24.38 g
- Average weight of mice ([1]; Day 8, positive control group 30 mg/kg oral gavage): 22.92 g
- Average weight of mice ([1]; Day 9, positive control group 30 mg/kg oral gavage): 22.3 g
- Average weight of mice ([1]; Day 10, positive control group 30 mg/kg oral gavage): 22.34 g
- Average weight of mice ([1]; Day 11, positive control group 30 mg/kg oral gavage): 22.68 g
- Average weight of mice ([1]; Day 12, positive control group 30 mg/kg oral gavage): 23.14 g
- Average weight of mice ([1]; Day 13, positive control group 30 mg/kg oral gavage): 23.52 g
- Average weight of mice ([1]; Day 14, positive control group 30 mg/kg oral gavage): 23.52 g
- Average colon length of mice ([1]; positive control group 30 mg/kg oral gavage): 6.0 cm
